The values below come from patent US20260285853A1, “COMPOUNDS AND METHODS FOR MODULATING SPLICING” (REMIX THERAPEUTICS INC., priority 2023, published 2026).

What all share (type): cell-based
Test [1] has as its system SH-SY5Y (human neuroblastoma) cells. Nature of the test: Cell viability, Cell Titer Glo 2.0 assay. The settings on record: read-out: Viability SHSY5Y.3 GI50. The essentials: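 SH-SY5Y cells were exposed to serially diluted compounds in IMDM with 10% FBS and 0.1% DMSO for 72 hours at 37° C., 5% CO2. Viability was measured by CellTiter-Glo 2.0 luminescence, with medium-only wells as blank.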
Background: In ATP-based viability assays light output follows the ATP content of the culture.

The test system of test [2] is MYB mRNA. Nature of the test: Splicing RT-qPCR assay (THP), Table 2A. The note with it: Table 2A, THP; for AC50: MYB alternative junction (AJ) mRNA, read-out: MYB AJ (AC50, increase in alternative junction mRNA); for IC50: MYB canonical junction (CJ) mRNA, read-out: MYB CJ (IC50, decrease in canonical junction mRNA). A general note: Real-time PCR tracks product formation cycle by cycle.

Test [3] relates to HTT mRNA. As to the kind of experiment: Splicing RT-qPCR assay (THP), Table 2A. The note with it: Table 2A, THP; for AC50: HTT alternative junction (AJ) mRNA, read-out: HTT AJ (AC50, increase in alternative junction mRNA); for IC50: HTT canonical junction (CJ) mRNA, read-out: HTT CJ (IC50, decrease in canonical junction mRNA).
The test system of test [4] is MYB mRNA. As to the kind of experiment: Gene panel canonical junction qPCR assay, decrease in CJ mRNA, Table 3. The settings on record: decrease in CJ mRNA levels, canonical junction qPCR, gene panel. In outline: (§1)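 Canonical exon-junction (CJ) transcript measured by 5′ nuclease RT-qPCR, normalized to GAPDH, GUSB or PPIA and to DMSO control (2^(−ΔΔCt)). A673 or K562 cells treated 24 h at 37° C with an 11-point 3-fold dilution series, top 10 uM, DMSO ≤0.25%. IC50 from 4-parameter logistic fit of percentage CJ decrease.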

In test [5] the test system is HTT mRNA. Described as above. The settings on record: decrease in CJ mRNA levels, canonical junction qPCR, gene panel. The essentials:
as §1

In the case of `CN[C@@H]1CCN(c2ccc(C(=O)Nc3cc(F)c4nn(C)cc4c3)c3nc(OC)sc23)C1` [Compound 747, N-(7-fluoro-2-methyl-indazol-5-yl)-2-methoxy-7-[(3R)-3-(methylamino)pyrrolidin-1-yl]-1,3-benzothiazole-4-carboxamide], in test [1], the GI50 is 100 to 1000 nM. The AC50 in test [2] was < 100 nM; in test [3] it was 100 to 1000 nM. In addition, the IC50 in test [2] is < 100 nM; in test [3], 100 to 1000 nM; in test [4] it was < 100 nM; in test [5] it was 100 to 1000 nM.

With `CN[C@H]1CCN(c2ccc(C(=O)Nc3cc(F)c4nn(C)cc4c3)c3nc(OC)sc23)C1` [Compound 748, N-(7-fluoro-2-methyl-indazol-5-yl)-2-methoxy-7-[(3S)-3-(methylamino)pyrrolidin-1-yl]-1,3-benzothiazole-4-carboxamide], in test [1], the GI50 was in the range of 100 to 1000 nM. Besides, the AC50 in test [2] was < 100 nM; in test [3], 100 to 1000 nM. Also, the concentration for half-maximal inhibition (IC50) in test [2] was < 100 nM; in test [3], 1000 to 10000 nM; in test [4], < 100 nM; in test [5] it was 1000 to 10000 nM.

As to `CNC1CN(c2ccc(C(=O)Nc3cc(F)c4nn(C)cc4c3)c3nc(OC)sc23)C1` [Compound 749, N-(7-fluoro-2-methyl-indazol-5-yl)-2-methoxy-7-[3-(methylamino)azetidin-1-yl]-1,3-benzothiazole-4-carboxamide], the 50% growth inhibitory concentration (GI50) in test [1] fell in the range of 100 to 1000 nM. The AC50 in test [2] and in test [3] was 100 to 1000 nM in each case. Moreover, the IC50 in test [2] was < 100 nM; in test [3] it was 100 to 1000 nM; in test [4] it was < 100 nM; in test [5], 100 to 1000 nM.

`CNCC1CN(c2ccc(C(=O)Nc3cc(F)c4nn(C)cc4c3)c3nc(OC)sc23)C1` [Compound 750]: in test [1], the GI50 was 100 to 1000 nM. The AC50 in test [2] is < 100 nM; in test [3], 100 to 1000 nM. The IC50 in test [2], in test [3], in test [4] and in test [5] was < 100 nM in each case.

Consider `Cc1cn2cc(NC(=O)c3ccc(N4CCC(NC5CC5)CC4)c4cn(C)nc34)nc2c(CNS(=O)(=O)CCO)n1` [Compound 752, 4-[4-(cyclopropylamino)-1-piperidyl]-N-[8-[(2-hydroxyethylsulfonylamino)methyl]-6-methyl-imidazo[1,2-a]pyrazin-2-yl]-2-methyl-indazole-7-carboxamide], for which the 50% growth inhibitory concentration (GI50) in test [1] is > 10000 nM. Also, the AC50 in test [2] and in test [3] was > 10000 nM throughout. Also, the IC50 in test [2], in test [3], in test [4] and in test [5] was > 10000 nM in each case.

With `Cc1cn2cc(NC(=O)c3ccc(N4CCC(NC5CC5)CC4)c4cn(C)nc34)nc2c(CCN)n1` [Compound 753, N-[8-(2-aminoethyl)-6-methyl-imidazo[1,2-a]pyrazin-2-yl]-4-[4-(cyclopropylamino)-1-piperidyl]-2-methyl-indazole-7-carboxamide], the GI50 in test [1] is > 10000 nM. Besides, the AC50 in test [2] and in test [3] was > 10000 nM each time. For the same molecule, the IC50 in test [2], in test [3], in test [4] and in test [5] was > 10000 nM in each case.

Regarding `Cc1cn2cc(NC(=O)c3ccc(N4CCC(NC5CC5)CC4)c4cn(C)nc34)nc2c(CNC(=N)N)n1` [Compound 754, 4-(4-(cyclopropylamino)piperidin-1-yl)-N-(8-(guanidinomethyl)-6-methylimidazo[1,2-a]pyrazin-2-yl)-2-methyl-2H-indazole-7-carboxamide bis(2,2,2-trifluoroacetate)], in test [1], the concentration for 50% growth inhibition (GI50) is > 10000 nM. The AC50 in test [2] and in test [3] was > 10000 nM in each case. The IC50 in test [2], in test [3], in test [4] and in test [5] was > 10000 nM throughout.

`Cc1nc2c(F)cc(NC(=O)c3ccc(N4CCC(NC5CC5)CC4)c4cn(C)nc34)cn2n1` [Compound 755, 4-[4-(cyclopropylamino)-1-piperidyl]-N-(8-fluoro-2-methyl-[1,2,4]triazolo[1,5-a]pyridin-6-yl)-2-methyl-indazole-7-carboxamide]: in test [1], the GI50 lay in the range of 100 to 1000 nM. Moreover, the AC50 in test [2] is < 100 nM; in test [3] it was 1000 to 10000 nM. For the same molecule, the IC50 in test [2] lay within 100 to 1000 nM; in test [3], 1000 to 10000 nM; in test [4] it was 100 to 1000 nM; in test [5], 1000 to 10000 nM.

For the molecule `COc1nc2c(C(=O)Nc3cc(F)c4nn(C)nc4c3)ccc(N3C[C@H](C)N[C@@H](C)C3)c2s1` [Compound 756, 7-[(3S,5S)-3,5-dimethylpiperazin-1-yl]-N-(7-fluoro-2-methyl-benzotriazol-5-yl)-2-methoxy-1,3-benzothiazole-4-carboxamide], the GI50 in test [1] is < 100 nM. Also, the AC50 in test [2] is < 100 nM; in test [3] it was 100 to 1000 nM. The IC50 in test [2] is < 100 nM; in test [3], 100 to 1000 nM; in test [4], < 100 nM; in test [5] it was 100 to 1000 nM.

Regarding `COc1nc2c(C(=O)Nc3cc(C#N)c4nn(C)cc4c3)ccc(N3C[C@H](C)N[C@@H](C)C3)c2s1` [Compound 757, N-(7-cyano-2-methyl-indazol-5-yl)-7-[(3S,5S)-3,5-dimethylpiperazin-1-yl]-2-methoxy-1,3-benzothiazole-4-carboxamide], the GI50 in test [1] lay in the range of 100 to 1000 nM. Also, the figures for the AC50 in test [2] and in test [3] were < 100 nM and 1000 to 10000 nM, respectively. Also, the IC50 in test [2] was < 100 nM; in test [3] it was > 10000 nM; in test [4], < 100 nM; in test [5], > 10000 nM.

As to `COc1nc2c(C(=O)Nc3cc(C#N)c4nc(C)cn4c3)ccc(N3C[C@H](C)N[C@@H](C)C3)c2s1` [Compound 758, N-(8-cyano-2-methyl-imidazo[1,2-a]pyridin-6-yl)-7-[(3S,5S)-3,5-dimethylpiperazin-1-yl]-2-methoxy-1,3-benzothiazole-4-carboxamide], in test [1], the GI50 lay within 100 to 1000 nM. For the same molecule, the AC50 in test [2] is < 100 nM; in test [3], > 10000 nM. In addition, the half-inhibitory concentration (IC50) was < 100 nM in test [2], > 10000 nM in test [3], < 100 nM in test [4] and > 10000 nM in test [5].

In the case of `COc1nc2c(C(=O)Nc3cn4cc(C)nc4c(OC)n3)ccc(N3C[C@H](C)N[C@@H](C)C3)c2s1` [Compound 759, 7-((3S,5S)-3,5-dimethylpiperazin-1-yl)-2-methoxy-N-(8-methoxy-2-methylimidazo[1,2-a]pyrazin-6-yl)benzo[d]thiazole-4-carboxamide 2,2,2-trifluoroacetate], the concentration for 50% growth inhibition (GI50) in test [1] was 100 to 1000 nM. Also, the results for the AC50 in test [2] and in test [3] were < 100 nM and 1000 to 10000 nM, respectively. Besides, the IC50 is < 100 nM in test [2], 1000 to 10000 nM in test [3], < 100 nM in test [4] and 1000 to 10000 nM in test [5].

`COc1nc2c(C(=O)Nc3ccc4c(c3)CCCO4)ccc(N3C[C@H](C)N[C@@H](C)C3)c2s1` [Compound 760]: in test [1], the GI50 is 1000 to 10000 nM. For the same molecule, the AC50 in test [2] and in test [3] was > 10000 nM in each case. Moreover, the IC50 in test [2], in test [3], in test [4] and in test [5] was > 10000 nM throughout.

In the case of `COc1nc2c(C(=O)Nc3cc4cn(C)nc4c(F)c3O)ccc(N3C[C@H](C)N[C@@H](C)C3)c2s1` [Compound 761, 7-[(3S,5S)-3,5-dimethylpiperazin-1-yl]-N-(7-fluoro-6-hydroxy-2-methyl-indazol-5-yl)-2-methoxy-1,3-benzothiazole-4-carboxamide], in test [1], the GI50 lay in the range of 1000 to 10000 nM. Moreover, the AC50 in test [2] was 100 to 1000 nM; in test [3] it was > 10000 nM. Besides, the IC50 in test [2] was 100 to 1000 nM; in test [3] it was > 10000 nM; in test [4], 100 to 1000 nM; in test [5], > 10000 nM.

Turning to `COc1nc2c(C(=O)Nc3cc(CNC(C)=O)c4nn(C)cc4c3)ccc(N3C[C@H](C)N[C@@H](C)C3)c2s1` [Compound 762, N-[7-(acetamidomethyl)-2-methyl-indazol-5-yl]-7-[(3S,5S)-3,5-dimethylpiperazin-1-yl]-2-methoxy-1,3-benzothiazole-4-carboxamide], the GI50 in test [1] lay in the range of 1000 to 10000 nM. For the same molecule, the AC50 in test [2] is < 100 nM; in test [3], > 10000 nM. Besides, the IC50 is < 100 nM in test [2], > 10000 nM in test [3], < 100 nM in test [4] and > 10000 nM in test [5].

`COc1nc2c(C(=O)Nc3cc(F)c4nc(C)nn4c3)ccc(N3C[C@H](C)N[C@@H](C)C3)c2s1` [Compound 763, 7-[(3S,5S)-3,5-dimethylpiperazin-1-yl]-N-(8-fluoro-2-methyl-[1,2,4]triazolo[1,5-a]pyridin-6-yl)-2-methoxy-1,3-benzothiazole-4-carboxamide]: the GI50 in test [1] is < 100 nM. The half-maximal activity concentration (AC50) was < 100 nM in test [2] and 100 to 1000 nM in test [3]. In addition, the IC50 in test [2] was < 100 nM; in test [3], 1000 to 10000 nM; in test [4], < 100 nM; in test [5], 1000 to 10000 nM.

By GI50 is commonly meant the concentration that inhibits growth by half. For orientation: AC50 means the midpoint of the concentration-response curve, whichever way the signal moves. A word on the IC50: it is the point on the concentration scale where inhibition reaches its midpoint.
